Measurements published in patent US20230348493A1, “COMPOUND FOR ADJUSTING ACTIVITY OF NMDA RECEPTOR, AND PHARMACEUTICAL COMPOSITION AND USE THEREOF” (BEIJING GREATWAY PHARMACEUTICAL TECHNOLOGY CO., LTD., priority 2020, published 2023).
Like-named read-outs stand apart in the source and are kept apart here.

How the values were obtained:
NMDA receptor [1] = target: T1, NMDA receptor (Rattus norvegicus, UniProt P35439); experiment: NMDA receptor agonistic properties in rat crude synaptosomal proteins (maximum [3H]-MK-801 binding vs 1 mM glycine); type: biochemical; conditions: maximum [3H]-MK-801 binding % relative to 1 mM glycine; 50 μM glutamic acid
T1 construct: After the rats were decapitated, the prefrontal cortex and hippocampus were rapidly separated on ice; from tissue; host or cells: SD male rat prefrontal cortex and hippocampus, crude synaptosomes
Method: (§1) After the rats were decapitated, the prefrontal cortex and hippocampus were rapidly separated on ice and weighed, 10 volumes of 50 mM Tris-HCl buffer (50 mM Tris-HCl, 5 mM MgCl2·6H2O, 1 mM EDTA, 0.5% (W/V) BSA, 1 mM PMSF, 0.32 M sucrose, pH 7.4) was added, and the mixture was homogenized for five times at 1500 revolutions/min with 30 s each time. A homogenate was centrifuged for 10 min at 1000×g, and a supernatant was taken and centrifuged for 10 min at 40,000×g, the precipitates were collected, re-suspended with volumes of Tris-HCl buffer, incubated at 37° C. for 10 min, and centrifuged for 10 min at 40,000×g, finally the precipitates were re-suspended with the above buffer, aliquoted and stored at −80° C. for later use.
(3) Detection of Influence of Tested Medicines on NMDA Receptor Agonistic Properties in Rat Crude Synaptosomal Proteins
100 μg of rat crude synaptosomal proteins was added to all tubes respectively. 50 μl of 5,7-dichlorokynurenic acid was added to a non-specific binding tube to achieve a final concentration of 10 μM. All tubes were preloaded with 50 μM of glutamic acid, and the materials were reacted for 15 min in advance. 20 μL of control drug at corresponding concentration was added to the test tube, and then reacted for 15 min. 1 mM glycine was added to the maximum reaction tube. A volume of 30 μl of labeled ligand [^3H]-MK-801 was successively added to all tubes to achieve a final concentration of 10 nM, and reacted for 15 min. All reaction tubes were supplemented to a volume of 500 μl with 50 mM Tris-HCl buffer (50 mM Tris-HCl, 5 mM MgCl2·6H2O, 1 mM EDTA, 0.5% (WN) BSA, 0.1% NaN3, pH 7.4). A reaction was carried out at 37° C. for 15 min. A type-49 glass fiber filter membrane was prepared and a sample was applied at the same time. The filter membrane was placed in a multi-head cell collector, and the reaction system was subjected to suction filtration under negative pressure and washed with an ice-cold 50 mM Tris-HCl buffer, 10 ml each time, for a total of 5 times. After suction drying, 1 ml of scintillation liquid was added to the filter membrane, the filter membrane was placed on the shaker for shaking for 1.5 h and then placed in the liquid scintillation counter on the next day to determine the radioactive intensity.
In an agonistic experiment, maximum [^3H]-MK-801 binding %=((tested compounds cpm−5,7 dichlorokynurenic acid cpm)/(1 mM glycine cpm−5,7 dichlorokynurenic acid cpm))×100%.

NMDA receptor [2] = target: T1, NMDA receptor; experiment: Inhibition of [3H]-MK-801 binding to rat crude synaptosomes (receptor ligand binding assay)
Method: The affinity of the tested compounds on NMDA receptor was researched by receptor ligand binding assays.
Ten SD male rats of SPF grade were ordered and acclimated for 7 days for future use.
as §1
(2) Detection of Inhibitory Function of Tested Medicines on Binding of Crude Synaptosomes in Rats to [^3H]-MK-801
50 μg of rat crude synaptosomal proteins was added to all tubes respectively. A volume of 50 μl of MK-801 (dizocilpine) was added to a non-specific binding tube to achieve a final concentration of 100 μM, and the materials were reacted for 15 min in advance. 20 μL of control drug at corresponding concentration was added to the test tube for reaction for 15 min. A volume of 30 μl of labeled ligand [^3H]-MK-801 was successively added to all tubes to achieve a final concentration of 10 nM. All reaction tubes were supplemented to a volume of 200 μl with 50 mM Tris-HCl buffer (50 mM Tris-HCl, 5 mM MgCl2·6H2O, 1 mM EDTA, 0.5% (WN) BSA, 0.1% NaN3, pH 7.4). A reaction was carried out at 37° C. for 10 min. A type-49 glass fiber filter membrane was prepared and a sample was applied at the same time. The filter membrane was placed in a multi-head cell collector, and a reaction system was subjected to suction filtration under negative pressure and washed with an ice-cold 50 mM Tris-HCl buffer, 10 ml each time, for a total of 5 times. After suction drying, 1 ml of scintillation liquid was added to the filter membrane, the filter membrane was placed on a shaker for shaking for 1.5 h and then placed in a liquid scintillation counter on the next day to determine the radioactive intensity.
GraphPad5.0 software was used to analyze the data, and the percentage of competitive inhibition was calculated through nonlinear fitting, wherein:
Percentage of competitive inhibition %=((total binding tube cpm−compound cpm)/(total binding tube cpm−non-specific binding tube cpm))×100%;
Specific binding amount=total binding amount−non-specific binding amount, wherein each binding site was determined by double compound tubes.

[3] = affinity on NMDA, [3H]-MK-801 10 nM, rat prefrontal cortex and hippocampus crude synaptosomes, read-out: IC50

| Compound | Maximum agonistic efficacy (%) (NMDA receptor [1]) | IC50 (NMDA receptor [2]; [3]) [pM] | IC50 (NMDA receptor [2]) [pM] |
| --- | --- | --- | --- |
| Cl.N[C@@H](CO)C(=O)N1CC2(C1)SCCN2Cc1ccccc1 [A-195] | 46 | 430 |  |
| C[C@@H](O)[C@H](N)C(=O)N1CC2(C1)SCCN2C.Cl [A-226] | 45 | 330 |  |
| CC(C)(C)OC(=O)N1CCC2(C1)NCCS2 (stereo not drawn) [A-016] | 56 | 350 |  |
| C[C@@H](O)[C@H](N)C(=O)N1CCC2(C1)N[C@H](C(=O)N1CCN(C)CC1)CS2.Cl (stereo partly drawn) [A-429] | 57 | 660 |  |
| CC(=O)N1CC2(C1)SCCN2C(=O)[C@@H](N)CC(N)=O.Cl [A-342] | 32 | 560 |  |
| CC(C)(C)OC(=O)N1CCCC2(C1)NCCS2 (stereo not drawn) [A-044] | 28 | 660 |  |
| CC(=O)N1CCC2(C1)N[C@H](C(=O)N[C@H](C(N)=O)[C@@H](C)O)CS2.Cl (stereo partly drawn) [A-384] | 39 | 420 |  |
| COC(=O)[C@@H]1CSC2(CCN(C(=O)[C@@H](N)[C@@H](C)O)CC2)N1.Cl [A-291] | 13 | 880 |  |
| Cl.NC(=O)[C@@H]1CSC2(CCN(C(=O)[C@@H](N)CO)CC2)N1 [A-275] | 12 | 350 |  |
| CC(C)[C@H](N)C(=O)N1CCC2(CC1)NCCS2.Cl [A-036] | 28 | 890 |  |
| CC(=O)N1CCC2(CC1)SCCN2C(=O)C(C)C [A-111] | 38 | 1580 |  |
| CC(C)C(=O)N1CCC2(CC1)SCCN2C(=O)[C@@H](N)[C@@H](C)O.Cl [A-358] | 78 | 860 |  |
| CC(C)C(=O)N1CC2(C1)N[C@H](C(N)=O)CS2 [A-256] | 28 | 890 |  |
| C[C@@H](O)[C@H](N)C(=O)N1CCCC2(C1)N[C@H](C(=O)N[C@H](C(N)=O)[C@@H](C)O)CS2.Cl (stereo partly drawn) [A-401] | 75 | 440 |  |
| CC(=O)N1CC2(C1)N[C@H](C(=O)N[C@@H](CO)C(N)=O)CS2 [A-333] | 19 | 410 |  |
| Cl.N#C[C@@H]1CSC2(CN(C(=O)[C@@H](N)CO)C2)N1 [A-303] | 35 | 240 |  |
| CC(=O)N1CCC2(CC1)SCCN2C(C)=O [A-079] | 41 | 1250 |  |
| CC(=O)N1CCC2(CC1)NCCS2 [A-031] | 52 | 350 |  |
| C[C@@H](O)[C@H](N)C(=O)N1CC2(C1)SCCN2C(=O)C(C)(C)C.Cl [A-130] | 43 | 480 |  |
| CN1CCN(C(=O)[C@@H]2CSC3(CCCN(C(=O)[C@@H](N)CO)C3)N2)CC1.Cl (stereo partly drawn) [A-463] | 59 | 520 |  |
| CC(C)C(=O)N1CCSC12CCCN(C(=O)[C@@H](N)[C@@H](C)O)C2.Cl (stereo partly drawn) [A-122] | 38 | 1650 |  |
| CC(C)(C)OC(=O)N1CC2(C1)NCCS2 [A-002] | 45 | 330 |  |
| C[C@@H](O)[C@H](N)C(=O)N1CCCC2(C1)NCCS2.Cl (stereo partly drawn) [A-048] | 38 | 550 |  |
| C[C@@H](O)[C@H](N)C(=O)N1CCC2(C1)N[C@H](C(N)=O)CS2.Cl (stereo partly drawn) [A-266] | 45 | 3200 |  |

| Compound | Maximum agonistic efficacy (%) (NMDA receptor [1]) | IC50 (NMDA receptor [2]; [3]) [pM] | IC50 (NMDA receptor [2]) [pM] |
| --- | --- | --- | --- |
| Cl.N[C@@H](CO)C(=O)N1CC2(C1)N[C@H](C(=O)N1CCNCC1)CS2 [A-470] | 33 | 350 |  |
| CC(C)(C)OC(=O)N1CCC2(CC1)NCCS2 [A-030] | 39 | 350 |  |
| CC(=O)N1CCSC12CCCN(C(=O)[C@@H](N)[C@@H](C)O)C2.Cl (stereo partly drawn) [A-090] | 36 | 450 |  |
| CC(=O)N1CCSC12CCN(C(=O)OC(C)(C)C)CC2 [A-078] | 56 | 1590 |  |
| CC(C)C(=O)N1CCC2(CC1)N[C@H](C(N)=O)CS2 [A-272] | 19 | 540 |  |
| C[C@@H](O)[C@H](N)C(=O)N1CCC2(CC1)N[C@H](C(=O)N1CCCCC1)CS2.Cl [A-437] | 42 | 330 |  |
| C[C@@H](O)[C@H](N)C(=O)N1CC2(C1)N[C@H](C(=O)N1CCOCC1)CS2.Cl [A-409] | 36 | 560 |  |
| CC(=O)N1CC2(C1)SCCN2C(C)=O [A-059] | 33 | 750 |  |
| CC(=O)N1CCSC12CN(C(=O)[C@@H](N)C(C)C)C2.Cl [A-068] | 48 | 1300 |  |
| CC(C)[C@H](N)C(=O)N1CCSC12CNC2.Cl [A-329] | 26 |  | 730 |
| C[C@@H](O)[C@H](N)C(=O)N1CCC2(C1)SCCN2C.Cl (stereo partly drawn) [A-234] | 75 | 1580 |  |
| C[C@@H](O)[C@H](N)C(=O)N1CCC2(C1)SCCN2C(=O)[C@@H](N)[C@@H](C)O.Cl (stereo partly drawn) [A-353] | 53 | 480 |  |
| CC(=O)N1CCCC2(C1)SCCN2C(=O)C(C)C (stereo not drawn) [A-119] | 35 | 1890 |  |
| CC(C)C(=O)N1CCSC12CNC2.Cl [A-093] | 65 |  | 480 |
| C[C@@H](O)[C@H](N)C(=O)N1CCC2(CC1)N[C@H](C(=O)N1CCSCC1)CS2.Cl [A-449] | 38 | 470 |  |
| C[C@@H](O)[C@H](N)C(=O)N1CCCC2(C1)N[C@H](C(N)=O)CS2.Cl (stereo partly drawn) [A-282] | 35 | 320 |  |
| Cl.N[C@@H](CO)C(=O)N1CCC2(CC1)N[C@H](C(=O)N1CCNCC1)CS2 [A-476] | 56 | 960 |  |
| CC(C)[C@H](N)C(=O)N1CCC2(CC1)N[C@H](C(N)=O)CS2.Cl [A-276] | 28 | 250 |  |
| CC(=O)N1[C@H](C(N)=O)CSC12CN(C(=O)[C@@H](N)C(C)O)C2.Cl (stereo partly drawn) [A-335] | 42 | 480 |  |
| CC(C)CN1CCSC12CN(C(=O)[C@@H](N)[C@@H](C)O)C2.Cl [A-162] | 38 | 450 |  |
| NC(=O)C(CO)NC(=O)C1CSC2(CN(C(=O)C(N)CO)C2)N1 (stereo not drawn) [A-334] | 34 | 380 |  |
| C[C@@H](O)[C@H](N)C(=O)N1CCCC2(C1)SCCN2C(=O)[C@@H](N)[C@@H](C)O.Cl (stereo partly drawn) [A-367] | 39 | 290 |  |
| C[C@@H](O)[C@H](N)C(=O)N1CCC2(CC1)N[C@H](C(=O)N[C@H](C(N)=O)[C@@H](C)O)CS2.Cl [A-394] | 63 | 790 |  |
| C[C@@H](O)[C@H](NC(=O)[C@@H]1CSC2(CNC2)N1)C(N)=O.Cl [A-370] | 46 |  | 360 |
